Experimental data reported in ChEMBL document CHEMBL1201862, “PubChem BioAssay data set” (2004).
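A five-concentration, 48-hour dose response in 96-well plates underlies each endpoint, interpolated linearly between surrounding concentrations. The concentration for 50% growth inhibition is given as GI50.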 Calls of active or inactive are those of the source. Rule as the data show it: active = GI50 up to about 1.1 µM and inactive = higher.

Key:
Assay in all cases: NCI tumour cell line growth inhibition, 48 h
[1] = tested on: HOP-62
[2] = tested on: SNB-19
[3] = tested on: SK-OV-3
[4] = tested on: OVCAR-3
[5] = tested on: HL-60
[6] = tested on: SW-620
[7] = tested on: OVCAR-4
[8] = tested on: NCI-H23
[9] = tested on: MOLT-4
[10] = tested on: SN12C
[11] = tested on: NCI-H522
[12] = tested on: KM12
[13] = tested on: COLO 205
[14] = tested on: SK-MEL-28
[15] = tested on: UACC-62
[16] = tested on: A549
[17] = tested on: HCT-116
[18] = tested on: UACC-257
[19] = tested on: HT-29
[20] = tested on: ACHN

For `CCN1C(=O)N2C(OC)c3ccccc3C(Br)C2(OC)C1=O` (stereo not drawn), the GI50 [1] was > 100 µM (inactive), the GI50 [2] was > 100 µM (inactive) and the GI50 [3] was > 100 µM (inactive). For the same molecule, the GI50 [4] was > 100 µM (inactive), the GI50 [5] was > 100 µM (inactive) and the GI50 [6] was > 100 µM (inactive). For the same molecule, the GI50 [7] was > 100 µM (inactive), the GI50 [8] was > 100 µM (inactive) and the GI50 [9] was > 100 µM (inactive). The GI50 [10] was > 100 µM (inactive), the GI50 [11] was > 100 µM (inactive) and the GI50 [12] was > 100 µM (inactive). The GI50 [13] was > 100 µM (inactive), the GI50 [14] was > 100 µM (inactive) and the GI50 [15] was > 100 µM (inactive).

In the case of `COc1ccc(S(=O)(=O)N/N=C/CN2C(=O)c3ccccc3C2=O)cc1OC`, the GI50 [1] is reported as > 100 µM (inactive), the GI50 [2] is reported as > 100 µM (inactive) and the GI50 [3] is reported as > 100 µM (inactive). For the same molecule, the GI50 [4] was > 100 µM (inactive), the GI50 [5] was > 100 µM (inactive) and the GI50 [6] was > 100 µM (inactive). For the same molecule, the GI50 [16] was > 100 µM (inactive), the GI50 [7] was > 100 µM (inactive) and the GI50 [8] was > 100 µM (inactive). The GI50 [9] was > 100 µM (inactive), the GI50 [17] was > 100 µM (inactive) and the GI50 [11] was > 100 µM (inactive). For the same molecule, the GI50 [18] was > 100 µM (inactive), the GI50 [19] was > 100 µM (inactive) and the GI50 [20] was > 100 µM (inactive). For the same molecule, the GI50 [12] was > 100 µM (inactive), the GI50 [13] was > 100 µM (inactive) and the GI50 [15] was > 100 µM (inactive).

For `CC12CCCC(C#N)(C1)OC2=O` (stereo not drawn), the GI50 [1] was > 100 µM (inactive), the GI50 [2] was > 100 µM (inactive) and the GI50 [3] was > 100 µM (inactive). The GI50 [4] was > 100 µM (inactive), the GI50 [5] was > 100 µM (inactive) and the GI50 [6] was > 100 µM (inactive). The GI50 [16] was > 100 µM (inactive), the GI50 [7] was > 100 µM (inactive) and the GI50 [8] was > 100 µM (inactive). For the same molecule, the GI50 [9] was > 100 µM (inactive), the GI50 [17] was > 100 µM (inactive) and the GI50 [10] was > 100 µM (inactive). For the same molecule, the GI50 [11] was > 100 µM (inactive), the GI50 [18] was > 100 µM (inactive) and the GI50 [19] was > 100 µM (inactive). For the same molecule, the GI50 [20] was > 100 µM (inactive), the GI50 [12] was > 100 µM (inactive) and the GI50 [14] was > 100 µM (inactive). The GI50 [15] was > 100 µM (inactive).

With `O=c1nc2n(c3nsnc13)CCO2` the GI50 [1] was > 100 µM (inactive), the GI50 [2] was > 100 µM (inactive) and the GI50 [3] was > 100 µM (inactive). For the same molecule, the GI50 [4] was > 100 µM (inactive), the GI50 [5] was > 100 µM (inactive) and the GI50 [6] was > 100 µM (inactive). For the same molecule, the GI50 [16] was > 100 µM (inactive), the GI50 [8] was > 100 µM (inactive) and the GI50 [9] was > 100 µM (inactive). The GI50 [17] was 29.8 µM (inactive), the GI50 [10] was > 100 µM (inactive) and the GI50 [11] was > 100 µM (inactive). The GI50 [18] was > 100 µM (inactive), the GI50 [19] was > 100 µM (inactive) and the GI50 [20] was > 100 µM (inactive). The GI50 [12] was > 100 µM (inactive), the GI50 [13] was > 100 µM (inactive) and the GI50 [14] was > 100 µM (inactive). The GI50 [15] was > 100 µM (inactive).

In the case of `CCC1=C(C[C@H]2NCCc3cc(OC)c(OC)cc32)C[C@H]2c3cc(OC)c(OC)cc3CCN2C1`, the GI50 [1] is reported as 0.0286 µM (active), the GI50 [3] is reported as 0.0637 µM (active) and the GI50 [4] is reported as 0.0387 µM (active). For the same molecule, the GI50 [5] was 0.0247 µM (active), the GI50 [6] was 0.028 µM (active) and the GI50 [16] was 0.0317 µM (active). The GI50 [7] was 0.0143 µM (active), the GI50 [8] was 0.0191 µM (active) and the GI50 [9] was 0.0128 µM (active). The GI50 [17] was 0.0173 µM (active), the GI50 [10] was 0.0326 µM (active) and the GI50 [11] was 0.0257 µM (active). The GI50 [18] was 0.0473 µM (active), the GI50 [19] was 0.0272 µM (active) and the GI50 [20] was 0.0388 µM (active). The GI50 [14] was 0.0365 µM (active) and the GI50 [15] was 0.0336 µM (active).

With `CC(=O)NC1C(OCc2ccccc2)OC(CO)C(O)C1OC(C)C(=O)N[C@@H](C)C(=O)N[C@H](CCC(=O)OCCNc1c2ccccc2nc2cccc([N+](=O)[O-])c12)C(N)=O` (stereo partly drawn) the GI50 [2] was 0.000187 µM (active), the GI50 [3] was 0.00711 µM (active) and the GI50 [4] was 0.00142 µM (active). The GI50 [5] was 0.00647 µM (active), the GI50 [6] was 0.000191 µM (active) and the GI50 [16] was 0.00146 µM (active). The GI50 [7] was 0.0038 µM (active), the GI50 [8] was 0.00148 µM (active) and the GI50 [9] was 0.00385 µM (active). For the same molecule, the GI50 [17] was 0.000195 µM (active), the GI50 [10] was 0.00531 µM (active) and the GI50 [11] was 0.00174 µM (active). The GI50 [18] was 0.00339 µM (active), the GI50 [19] was 0.000186 µM (active) and the GI50 [20] was 0.00145 µM (active). For the same molecule, the GI50 [12] was 0.00114 µM (active), the GI50 [13] was 0.00111 µM (active) and the GI50 [14] was 0.00441 µM (active). For the same molecule, the GI50 [15] was 0.000451 µM (active).

`O=C(Nc1ccn(CCOC(=O)c2ccccc2)c(=O)n1)c1ccccc1` was tested, and the GI50 [1] was > 100 µM (inactive), the GI50 [3] was > 100 µM (inactive) and the GI50 [4] was > 100 µM (inactive). For the same molecule, the GI50 [5] was > 100 µM (inactive), the GI50 [6] was > 100 µM (inactive) and the GI50 [16] was > 100 µM (inactive). For the same molecule, the GI50 [7] was > 100 µM (inactive), the GI50 [17] was > 100 µM (inactive) and the GI50 [10] was > 100 µM (inactive). For the same molecule, the GI50 [11] was > 100 µM (inactive), the GI50 [18] was > 100 µM (inactive) and the GI50 [19] was > 100 µM (inactive). For the same molecule, the GI50 [20] was > 100 µM (inactive), the GI50 [12] was > 100 µM (inactive) and the GI50 [13] was > 100 µM (inactive). The GI50 [14] was > 100 µM (inactive) and the GI50 [15] was > 100 µM (inactive).

In the case of `C1CN(c2nc3c(nnc4nc(N5CCOCC5)sc43)s2)CCO1`, the GI50 [1] is reported as > 100 µM (inactive), the GI50 [2] is reported as 89.1 µM (inactive) and the GI50 [4] is reported as 78.3 µM (inactive). For the same molecule, the GI50 [5] was > 100 µM (inactive), the GI50 [6] was > 100 µM (inactive) and the GI50 [16] was > 100 µM (inactive). The GI50 [7] was > 100 µM (inactive), the GI50 [8] was > 100 µM (inactive) and the GI50 [9] was 58.7 µM (inactive). For the same molecule, the GI50 [17] was > 100 µM (inactive), the GI50 [10] was 96.6 µM (inactive) and the GI50 [11] was 45.3 µM (inactive). For the same molecule, the GI50 [18] was > 100 µM (inactive), the GI50 [19] was > 100 µM (inactive) and the GI50 [20] was > 100 µM (inactive). For the same molecule, the GI50 [12] was > 100 µM (inactive), the GI50 [13] was > 100 µM (inactive) and the GI50 [14] was > 100 µM (inactive). The GI50 [15] was > 100 µM (inactive).
